Patent US11382924B2, “Compounds and pharmaceutical uses thereof” (priority 2020, dated 2022)
Values joined by “and” are separate entries in the source; they are usually repeats but may differ in a detail not shown here. Equal values may be shown once. Read-outs that look alike come from different tables or passages of the source.

Assays:
SARS-CoV-2 [1] = settings: Choy et al., 2020; qRT-PCR, supernatant; MOI = 0.02; cited from earlier work
SARS-CoV-2 3CLPro [2] = target: T1, SARS-CoV-2 3CLPro (Severe acute respiratory syndrome coronavirus 2, UniProt P0DTD1); experiment: Native-PAGE mobility shift binding with 3CLPro; settings: 62.5-1000 μM sample mixed with 40 μM 3CLPro, 4° C., 3 hours
SARS-CoV-2 3CLPro [3] = target: T1, SARS-CoV-2 3CLPro; experiment: biochemical
[4] = target: T2, SARS-CoV-2 viral 3CL protease (Severe acute respiratory syndrome coronavirus 2, UniProt P0DTD1); experiment: biochemical; settings: read-out: Residual Protease Activity (%) 1 μM
[5] = target: human D-amino acid oxidase (Homo sapiens, UniProt P14920); experiment: Inhibition of human D-amino acid oxidase; type: biochemical; settings: read-out: IC50 for inhibiting human D-amino acid oxidase
human D-amino acid oxidase, sequence (P14920 whole entry): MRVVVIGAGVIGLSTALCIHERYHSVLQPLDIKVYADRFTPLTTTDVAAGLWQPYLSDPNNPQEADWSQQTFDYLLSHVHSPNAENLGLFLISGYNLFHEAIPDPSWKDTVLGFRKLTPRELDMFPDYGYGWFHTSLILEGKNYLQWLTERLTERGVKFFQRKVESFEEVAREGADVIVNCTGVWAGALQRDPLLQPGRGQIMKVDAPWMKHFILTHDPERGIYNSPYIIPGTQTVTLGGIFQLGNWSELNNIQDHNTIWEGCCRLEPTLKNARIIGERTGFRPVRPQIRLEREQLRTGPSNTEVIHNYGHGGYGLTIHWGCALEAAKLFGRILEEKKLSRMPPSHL

2019-nCoV 3CLPro = 2019-nCoV 3CLPro (Severe acute respiratory syndrome coronavirus 2, UniProt P0DTD1); experiment: 2019-nCoV 3CLPro fluorogenic protease activity assay at 3 μM (35 nM protease, pH 7.0); type: biochemical; settings: for remaining activity at 3 µM / Residual Protease Activity (%) 3 μM: 3 μM sample; for remaining activity at 3 µM: read-out: Residual Protease Activity (%) 3 μM
[6] = 2020, cited from earlier work
SARS-CoV-2 [7] = experiment: SARS-CoV-2 virucidal assay in Vero E6 cells (qPCR of RdRP gene); type: cell-based; settings: MOI 0.01, 24 h
[8] = target: T2, SARS-CoV-2 viral 3CL protease; experiment: 3CL protease activity assay, concentration series of SNB01 (IC50); type: biochemical
[9] = 50% inhibition concentration (IC50) against SARS-CoV-2 3CLPro, samples of Table 34, 50 nM protease, 6 μM substrate
[10] = IC50, Table 34, final DMSO concentration 0.05%
[11] = Table 34, final DMSO concentration 0.05%, read-out: IC50 (converted)
[12] = Table 34, final DMSO concentration 0.40%, read-out: IC50 (converted)

Structure (SMILES): Cc1cccc(C)c1OCC(=O)N[C@@H](Cc1ccccc1)[C@@H](O)C[C@H](Cc1ccccc1)NC(=O)[C@H](C(C)C)N1CCCNC1=O [Lopinavir]
- EC50 (SARS-CoV-2 [1]): 26100 nM
- Therapeutic Index (CC50/EC50) (SARS-CoV-2 [1]): 1.906

Structure (SMILES): O=C(O)c1cc(O)c(O)c(O)c1 [GA, gallic acid, reference compound]
- binding to 3CLPro by native-PAGE mobility shift (SARS-CoV-2 3CLPro [2]): no significant binding

Structure (SMILES): O=C(OC[C@H]1O[C@@H](OC(=O)c2cc(O)c(O)c(OC(=O)c3cc(O)c(O)c(OC(=O)c4cc(O)c(O)c(O)c4)c3)c2)[C@H](OC(=O)c2cc(O)c(O)c(OC(=O)c3cc(O)c(O)c(OC(=O)c4cc(O)c(O)c(O)c4)c3)c2)[C@@H](OC(=O)c2cc(O)c(O)c(OC(=O)c3cc(O)c(O)c(OC(=O)c4cc(O)c(O)c(O)c4)c3)c2)[C@@H]1OC(=O)c1cc(O)c(O)c(OC(=O)c2cc(O)c(O)c(OC(=O)c3cc(O)c(O)c(O)c3)c2)c1)c1cc(O)c(O)c(OC(=O)c2cc(O)c(O)c(OC(=O)c3cc(O)c(O)c(O)c3)c2)c1 [Sample 6, (2S,3R,4S,5R,6R)-6-(((3-((3,4-dihydroxy-5-((3,4,5-trihydroxybenzoyl)oxy)benzoyl)oxy)-4,5-dihydroxybenzoyl)oxy)methyl)tetrahydro-2H-pyran-2,3,4,5-tetrayl tetrakis(3-((3,4-dihydroxy-5-((3,4,5-trihydroxybenzoyl)oxy)benzoyl)oxy)-4,5-dihydroxybenzoate)]
- IC50 (SARS-CoV-2 3CLPro [3]; [9]): < 609 nM
- IC50 (SARS-CoV-2 3CLPro [3]; [10]): 602 nM
- IC50 (SARS-CoV-2 3CLPro [3]; [11]): 602 nM
- remaining activity at 1 µM ([4]; 1 μM sample): 39%
- binding to 3CLPro by native-PAGE mobility shift (SARS-CoV-2 3CLPro [2]): significant binding

Structure (SMILES): O=C(O)c1cc(O)c(O)c(OC(=O)c2cc(O)c(O)c(OC(=O)c3cc(O)c(O)c(OC(=O)c4cc(O)c(O)c(OC(=O)c5cc(O)c(O)c(O)c5)c4)c3)c2)c1 [Compound 18]
- IC50 [5]: 121 nM
- remaining activity at 3 µM (2019-nCoV 3CLPro): 56%
- inhibition at 3 µM (2019-nCoV 3CLPro; 3 μM, read-out: inhibition activity against 2019-nCoV 3CLpro): 44%

Structure (SMILES): O=C(OC[C@H]1O[C@H](OC(=O)c2cc(O)c(O)c(O)c2)[C@H](OC(=O)c2cc(O)c(O)c(O)c2)[C@@H](OC(=O)c2cc(O)c(O)c(O)c2)[C@@H]1OC(=O)c1cc(O)c(O)c(O)c1)c1cc(O)c(O)c(O)c1 [Sample 1]
- remaining activity at 3 µM (2019-nCoV 3CLPro): 52%

Structure (SMILES): O=C(Oc1cc(OC(=O)c2cc(O)c(O)c(OC(=O)c3cc(O)c(O)c(OC(=O)c4cc(O)c(O)c(O)c4)c3)c2)cc(OC(=O)c2cc(O)c(O)c(OC(=O)c3cc(O)c(O)c(OC(=O)c4cc(O)c(O)c(O)c4)c3)c2)c1)c1cc(O)c(O)c(OC(=O)c2cc(O)c(O)c(OC(=O)c3cc(O)c(O)c(O)c3)c2)c1 [Phloroglucinol 9G]
- IC50 (SARS-CoV-2 3CLPro [3]; [10]): 1450 nM
- IC50 (SARS-CoV-2 3CLPro [3]; [11]): 1450 nM

Structure (SMILES): O=C(Oc1ccccc1)c1cc(O)c(O)c(OC(=O)c2cc(O)c(O)c(OC(=O)c3cc(O)c(O)c(O)c3)c2)c1 [phenol 3G]
- IC50 (SARS-CoV-2 3CLPro [3]; IC50, Table 34, final DMSO concentration 0.40%): 6440 nM
- IC50 (SARS-CoV-2 3CLPro [3]; [12]): 6440 nM

Structure (SMILES): O=C(OC[C@H]1O[C@@H](OC(=O)c2cc(O)c(O)c(OC(=O)c3cc(O)c(O)c(O)c3)c2)[C@H](OC(=O)c2cc(O)c(O)c(OC(=O)c3cc(O)c(O)c(O)c3)c2)[C@@H](OC(=O)c2cc(O)c(O)c(OC(=O)c3cc(O)c(O)c(O)c3)c2)[C@@H]1OC(=O)c1cc(O)c(O)c(OC(=O)c2cc(O)c(O)c(O)c2)c1)c1cc(O)c(O)c(OC(=O)c2cc(O)c(O)c(O)c2)c1 [Sample 4, (2S,3R,4S,5R,6R)-3,4,5-tris(3,4-dihydroxy-5-(3,4,5-trihydroxybenzoyloxy)benzoyloxy)-6-((3,4-dihydroxy-5-(3,4,5-trihydroxybenzoyloxy)benzoyloxy)methyl)oxan-2-yl 3,4-dihydroxy-5-(3,4,5-trihydroxybenzoyloxy)benzoate]
- IC50 (SARS-CoV-2 3CLPro [3]; [9]): < 882 nM
- IC50 (SARS-CoV-2 3CLPro [3]; [10]): 806 nM
- remaining activity at 1 µM ([4]; 1 μM sample): 43%
- Residual Protease Activity (%) 3 μM (2019-nCoV 3CLPro): −9%
- binding to 3CLPro by native-PAGE mobility shift (SARS-CoV-2 3CLPro [2]): significant binding

Structure (SMILES): CCC(CC)COC(=O)[C@H](C)N[P@](=O)(OC[C@H]1O[C@@](C#N)(c2ccc3c(N)ncnn23)[C@H](O)[C@@H]1O)Oc1ccccc1 [Remdesivir]
- CC50 ([6]; Choy et al.): > 100000 nM
- CC50 ([6]; Jeon et al.): > 25000 nM
- CC50 ([6]; Pruijssers et al.): > 10000 nM
- CC50 ([6]; Runfeng et al.): 111000 nM
- CC50 ([6]; Wang et al.): > 100000 nM
- EC99 against SARS-CoV-2 infection (SARS-CoV-2 [7]; Vero E6, cell layer): 15 µM and 15.000 µM
- EC99 against SARS-CoV-2 infection (SARS-CoV-2 [7]; Vero E6, supernatant): 15 µM and 15.000 µM

Structure (SMILES): O=C(OC[C@H]1O[C@H](OC(=O)c2cc(O)c(O)c(OC(=O)c3cc(O)c(O)c(O)c3)c2)[C@H](OC(=O)c2cc(O)c(O)c(OC(=O)c3cc(O)c(O)c(O)c3)c2)[C@@H](OC(=O)c2cc(O)c(O)c(OC(=O)c3cc(O)c(O)c(O)c3)c2)[C@@H]1OC(=O)c1cc(O)c(O)c(OC(=O)c2cc(O)c(O)c(O)c2)c1)c1cc(O)c(O)c(OC(=O)c2cc(O)c(O)c(O)c2)c1 [Sample 3]
- IC50 (SARS-CoV-2 3CLPro [3]; [9]): < 882 nM
- IC50 (SARS-CoV-2 3CLPro [3]; [10]): 666 nM and 665 nM
- remaining activity at 1 µM ([4]; 1 μM sample): 39%
- Residual Protease Activity (%) 3 μM (2019-nCoV 3CLPro): −2%

Structure (SMILES): O=C(Oc1cc(OC(=O)c2cc(O)c(O)c(OC(=O)c3cc(O)c(O)c(OC(=O)c4cc(O)c(O)c(OC(=O)c5cc(O)c(O)c(OC(=O)c6cc(O)c(O)c(O)c6)c5)c4)c3)c2)cc(OC(=O)c2cc(O)c(O)c(OC(=O)c3cc(O)c(O)c(OC(=O)c4cc(O)c(O)c(OC(=O)c5cc(O)c(O)c(OC(=O)c6cc(O)c(O)c(O)c6)c5)c4)c3)c2)c1)c1cc(O)c(O)c(OC(=O)c2cc(O)c(O)c(OC(=O)c3cc(O)c(O)c(OC(=O)c4cc(O)c(O)c(OC(=O)c5cc(O)c(O)c(O)c5)c4)c3)c2)c1 [Phloroglucinol 15G]
- IC50 (SARS-CoV-2 3CLPro [3]; [12]): 934 nM

Structure (SMILES): O=C(O)c1cc(O)c(O)c(OC(=O)c2cc(O)c(O)c(OC(=O)c3cc(O)c(O)c(O)c3)c2)c1 [Compound 14]
- IC50 [5]: 299 nM

Structure (SMILES): O=C(OC[C@H]1O[C@@H](OC(=O)c2cc(O)c(O)c(OC(=O)c3cc(O)c(O)c(O)c3)c2)[C@H](OC(=O)c2cc(O)c(O)c(OC(=O)c3cc(O)c(O)c(O)c3)c2)[C@@H](OC(=O)c2cc(O)c(O)c(OC(=O)c3cc(O)c(O)c(O)c3)c2)[C@@H]1OC(=O)c1cc(O)c(O)c(OC(=O)c2cc(O)c(O)c(O)c2)c1)c1cc(O)c(O)c(OC(=O)c2cc(O)c(O)c(O)c2)c1 [SNB01]
- IC50 [8]: ~474 nM

Structure (SMILES): O=C(OC[C@H]1O[C@@H](OC(=O)c2cc(O)c(O)c(O)c2)[C@H](OC(=O)c2cc(O)c(O)c(O)c2)[C@@H](OC(=O)c2cc(O)c(O)c(O)c2)[C@@H]1OC(=O)c1cc(O)c(O)c(O)c1)c1cc(O)c(O)c(O)c1 [Sample 2, (2S,3R,4S,5R,6R)-3,4,5-tris(3,4,5-trihydroxybenzoyloxy)-6-((3,4,5-trihydroxybenzoyloxy)methyl)oxan-2-yl 3,4,5-trihydroxybenzoate]
- remaining activity at 1 µM [4]: 57%
- remaining activity at 3 µM (2019-nCoV 3CLPro): 55%
